Data from ChEMBL document CHEMBL3864146, “5-Alkyloxytryptamines are membrane-targeting, broad-spectrum antibiotics” (Bioorg Med Chem Lett, 2016).

Assays:
Morganella morganii = experiment: Antibacterial activity against Morganella morganii after 16 to 18 hrs by micro-dilution method; type: functional
Escherichia coli [1] = experiment: Adjuvant activity assessed as potentiation of ciprofloxacin-induced antibacterial activity against Escherichia coli BW25113 at 0.5 times MIC after 16 to 18 hrs by checkerboard assay (reference value: 13 ng/ml); type: functional
Vibrio cholerae = experiment: Antibacterial activity against Vibrio cholerae after 16 to 18 hrs by micro-dilution method; type: functional
Bacillus subtilis = experiment: Antibacterial activity against Bacillus subtilis 168 after 16 to 18 hrs by micro-dilution method; type: functional; conditions: subsp. subtilis str. 168
Escherichia coli [2] = experiment: Induction of membrane permeabilization in Escherichia coli BW25113 at MIC after 15 mins by propidium iodide staining-based fluorescence microplate reader method relative to 50% ethanol; type: functional
[3] = Cytotoxicity against HEK cells assessed as cell viability at 10.5 ug/ml after 48 hrs by CellTiter-Glo assay relative to control; type: toxicity, cell-based, HEK293; conditions: human, read-out: Activity
[4] = Cytotoxicity against HEK cells assessed as cell viability at 10.5 ug/ml after 24 hrs by CellTiter-Glo assay relative to control; type: toxicity, cell-based, HEK293; conditions: human, read-out: Activity
Pseudomonas aeruginosa [5] = experiment: Antibacterial activity against Pseudomonas aeruginosa after 16 to 18 hrs by micro-dilution method; type: functional
Escherichia coli [6] = experiment: Adjuvant activity assessed as potentiation of chloramphenicol-induced antibacterial activity against Escherichia coli BW25113 at 0.25 times MIC after 16 to 18 hrs by checkerboard assay (reference value: 8 ng/ml); type: functional
Staphylococcus aureus [7] = experiment: Adjuvant activity assessed as potentiation of rifampicin-induced antibacterial activity against Staphylococcus aureus at 21 ug/ml after 16 to 18 hrs by checkerboard assay (reference value: 0.004 ug/ml); type: functional
Escherichia coli [8] = experiment: Adjuvant activity assessed as potentiation of rifampicin-induced antibacterial activity against Escherichia coli BW25113 at 0.25 times MIC after 16 to 18 hrs by checkerboard assay (reference value: 8 ng/ml); type: functional
Escherichia coli [9] = experiment: Adjuvant activity assessed as potentiation of tetracycline-induced antibacterial activity against Escherichia coli BW25113 at 0.25 times MIC after 16 to 18 hrs by checkerboard assay (reference value: 2 ng/ml); type: functional
Klebsiella pneumoniae [10] = experiment: Antibacterial activity against Klebsiella pneumoniae after 16 to 18 hrs by micro-dilution method; type: functional
Escherichia coli [11] = experiment: Antibacterial activity against Escherichia coli BW25113 after 16 to 18 hrs by micro-dilution method; type: functional
Escherichia coli [12] = experiment: Adjuvant activity assessed as potentiation of chloramphenicol-induced antibacterial activity against Escherichia coli BW25113 at 0.5 times MIC after 16 to 18 hrs by checkerboard assay (reference value: 8 ng/ml); type: functional
Salmonella typhimurium [13] = experiment: Antibacterial activity against Salmonella typhimurium after 16 to 18 hrs by micro-dilution method; type: functional, Salmonella enterica subsp. enterica serovar Typhimurium; conditions: Salmonella enterica
Acinetobacter baumannii [14] = experiment: Antibacterial activity against Acinetobacter baumannii after 16 to 18 hrs by micro-dilution method; type: functional
Escherichia coli [15] = experiment: Adjuvant activity assessed as potentiation of ciprofloxacin-induced antibacterial activity against Escherichia coli BW25113 at 0.25 times MIC after 16 to 18 hrs by checkerboard assay (reference value: 13 ng/ml); type: functional
Escherichia coli [16] = experiment: Adjuvant activity assessed as potentiation of rifampicin-induced antibacterial activity against Escherichia coli BW25113 at 0.5 times MIC after 16 to 18 hrs by checkerboard assay (reference value: 8 ng/ml); type: functional
Edwardsiella tarda = experiment: Antibacterial activity against Edwardsiella tarda after 16 to 18 hrs by micro-dilution method; type: functional
[17] = Cytotoxicity against HEK cells assessed as cell viability at 21 ug/ml after 48 hrs by CellTiter-Glo assay relative to control; type: toxicity, cell-based, HEK293; conditions: human, read-out: Activity
[18] = Cytotoxicity against HEK cells assessed as cell viability at 5.3 ug/ml after 24 hrs by CellTiter-Glo assay relative to control; type: toxicity, cell-based, HEK293; conditions: human, read-out: Activity
Acinetobacter baumannii [19] = experiment: Adjuvant activity assessed as potentiation of rifampicin-induced antibacterial activity against Acinetobacter baumannii at 21 ug/ml after 16 to 18 hrs by checkerboard assay (reference value: 2 ug/ml); type: functional
Staphylococcus aureus [20] = experiment: Antibacterial activity against Staphylococcus aureus after 16 to 18 hrs by micro-dilution method; type: functional
Escherichia coli [21] = experiment: Antibacterial activity against tolC-deficient Escherichia coli BW25113 after 16 to 18 hrs by micro-dilution method; type: functional
Klebsiella pneumoniae [22] = experiment: Adjuvant activity assessed as potentiation of rifampicin-induced antibacterial activity against Klebsiella pneumoniae at 21 ug/ml after 16 to 18 hrs by checkerboard assay (reference value: 16 ug/ml); type: functional
Pseudomonas aeruginosa [23] = experiment: Adjuvant activity assessed as potentiation of rifampicin-induced antibacterial activity against Pseudomonas aeruginosa at 21 ug/ml after 16 to 18 hrs by checkerboard assay (reference value: 16 ug/ml); type: functional
Salmonella typhimurium [24] = experiment: Adjuvant activity assessed as potentiation of rifampicin-induced antibacterial activity against Salmonella typhimurium at 21 ug/ml after 16 to 18 hrs by checkerboard assay (reference value: 8 ug/ml); type: functional, Salmonella enterica subsp. enterica serovar Typhimurium; conditions: Salmonella enterica
[25] = Cytotoxicity against HEK cells assessed as cell viability at 5.3 ug/ml after 48 hrs by CellTiter-Glo assay relative to control; type: toxicity, cell-based, HEK293; conditions: human, read-out: Activity
Escherichia coli [26] = experiment: Adjuvant activity assessed as potentiation of tetracycline-induced antibacterial activity against Escherichia coli BW25113 at 0.5 times MIC after 16 to 18 hrs by checkerboard assay (reference value: 2 ng/ml); type: functional
[27] = Cytotoxicity against HEK cells assessed as cell viability at 21 ug/ml after 24 hrs by CellTiter-Glo assay relative to control; type: toxicity, cell-based, HEK293; conditions: human, read-out: Activity
Shigella boydii = experiment: Antibacterial activity against Shigella boydii after 16 to 18 hrs by micro-dilution method; type: functional
Klebsiella aerogenes = experiment: Antibacterial activity against Enterobacter aerogenes after 16 to 18 hrs by micro-dilution method; type: functional
[28] = Cytotoxicity against HEK cells assessed as cell viability at 1.6 ug/ml after 24 hrs by CellTiter-Glo assay relative to control; type: toxicity, cell-based, HEK293; conditions: human, read-out: Activity
Pseudomonas aeruginosa [29] = experiment: Adjuvant activity assessed as potentiation of tetracycline-induced antibacterial activity against Pseudomonas aeruginosa at 3.2 ug/ml after 16 to 18 hrs by checkerboard assay (reference value: 32 ug/ml); type: functional
Acinetobacter baumannii [30] = experiment: Adjuvant activity assessed as potentiation of tetracycline-induced antibacterial activity against Acinetobacter baumannii at 3.2 ug/ml after 16 to 18 hrs by checkerboard assay (reference value: 1 ug/ml); type: functional
[31] = Cytotoxicity against HEK cells assessed as cell viability at 1.6 ug/ml after 48 hrs by CellTiter-Glo assay relative to control; type: toxicity, cell-based, HEK293; conditions: human, read-out: Activity
[32] = Cytotoxicity against HEK cells assessed as cell viability at 3.2 ug/ml after 24 hrs by CellTiter-Glo assay relative to control; type: toxicity, cell-based, HEK293; conditions: human, read-out: Activity
[33] = Cytotoxicity against HEK cells assessed as cell viability at 0.8 ug/ml after 24 hrs by CellTiter-Glo assay relative to control; type: toxicity, cell-based, HEK293; conditions: human, read-out: Activity
Klebsiella pneumoniae [34] = experiment: Adjuvant activity assessed as potentiation of tetracycline-induced antibacterial activity against Klebsiella pneumoniae at 3.2 ug/ml after 16 to 18 hrs by checkerboard assay (reference value: 2 ug/ml); type: functional
[35] = Cytotoxicity against HEK cells assessed as cell viability at 3.2 ug/ml after 48 hrs by CellTiter-Glo assay relative to control; type: toxicity, cell-based, HEK293; conditions: human, read-out: Activity
Staphylococcus aureus [36] = experiment: Adjuvant activity assessed as potentiation of tetracycline-induced antibacterial activity against Staphylococcus aureus at 1.6 ug/ml after 16 to 18 hrs by checkerboard assay (reference value: 0.125 ug/ml); type: functional
[37] = Cytotoxicity against HEK cells assessed as cell viability at 0.8 ug/ml after 48 hrs by CellTiter-Glo assay relative to control; type: toxicity, cell-based, HEK293; conditions: human, read-out: Activity
Salmonella typhimurium [38] = experiment: Adjuvant activity assessed as potentiation of tetracycline-induced antibacterial activity against Salmonella typhimurium at 3.2 ug/ml after 16 to 18 hrs by checkerboard assay (reference value: 1 ug/ml); type: functional, Salmonella enterica subsp. enterica serovar Typhimurium; conditions: Salmonella enterica

| Structure (SMILES) | MIC (Morganella morganii) | MIC (Escherichia coli [1]) | MIC (Vibrio cholerae) | MIC (Bacillus subtilis) | Activity (Escherichia coli [2]) | MIC (Pseudomonas aeruginosa [5]) | MIC (Escherichia coli [6]) | MIC (Escherichia coli [8]) | MIC (Escherichia coli [9]) | MIC (Klebsiella pneumoniae [10]) | MIC (Escherichia coli [11]) | MIC (Escherichia coli [12]) | MIC (Salmonella typhimurium [13]) | MIC (Acinetobacter baumannii [14]) | MIC (Escherichia coli [15]) | MIC (Escherichia coli [16]) | MIC (Edwardsiella tarda) | MIC (Staphylococcus aureus [20]) | MIC (Escherichia coli [21]) | MIC (Escherichia coli [26]) | further results |
| --- | --- | --- | --- | --- | --- | --- | --- | --- | --- | --- | --- | --- | --- | --- | --- | --- | --- | --- | --- | --- | --- |
| CCCCCCOc1ccc2[nH]cc(CCN)c2c1.Cl | > 83 µg/mL | 0.013 µg/mL | 42 µg/mL | 42 µg/mL | 34% | > 83 µg/mL | 0.004 µg/mL | 0.004 µg/mL | 0.002 µg/mL | 42 µg/mL | 42 µg/mL | 0.004 µg/mL | 42 µg/mL | 42 µg/mL | 0.013 µg/mL | 0.001 µg/mL | 42 µg/mL | 42 µg/mL | 42 µg/mL | 0.001 µg/mL | viability at 48 h, 10.5 ug/ml [3]: 0%; viability at 24 h, 10.5 ug/ml [4]: 0.1%; MIC (Staphylococcus aureus [7]): 0.004 µg/mL; viability at 48 h, 21 ug/ml [17]: 0%; viability at 24 h, 5.3 ug/ml [18]: 0.4%; MIC (Acinetobacter baumannii [19]): 0.016 µg/mL; MIC (Klebsiella pneumoniae [22]): 8 µg/mL; MIC (Pseudomonas aeruginosa [23]): 16 µg/mL; MIC (Salmonella typhimurium [24]): 0.5 µg/mL; viability at 48 h, 5.3 ug/ml [25]: 0.1%; viability at 24 h, 21 ug/ml [27]: 0%; MIC (Shigella boydii): 42 µg/mL; MIC (Klebsiella aerogenes): 42 µg/mL |
| CCCCCCCCCCOc1ccc2[nH]cc(CCN)c2c1.Cl | 101 µg/mL | 0.013 µg/mL | 6.3 µg/mL | 1.6 µg/mL | 83% | > 101 µg/mL | 0.004 µg/mL | 0.008 µg/mL | 0.001 µg/mL | 6.3 µg/mL | 6.3 µg/mL | 0.002 µg/mL | 6.3 µg/mL | 6.3 µg/mL | 0.013 µg/mL | 0.001 µg/mL | 25 µg/mL | 3.2 to 6.3 µg/mL | 3.2 µg/mL | 0.00025 µg/mL | viability at 24 h, 1.6 ug/ml [28]: 29.6%; MIC (Pseudomonas aeruginosa [29]): 16 µg/mL; MIC (Acinetobacter baumannii [30]): 0.25 µg/mL; viability at 48 h, 1.6 ug/ml [31]: 17%; viability at 24 h, 3.2 ug/ml [32]: 13.4%; viability at 24 h, 0.8 ug/ml [33]: 59.7%; MIC (Klebsiella pneumoniae [34]): 2 µg/mL; viability at 48 h, 3.2 ug/ml [35]: 2%; MIC (Staphylococcus aureus [36]): 0.001 µg/mL; viability at 48 h, 0.8 ug/ml [37]: 39.1%; MIC (Salmonella typhimurium [38]): 0.016 µg/mL; MIC (Shigella boydii): 3.2 µg/mL; MIC (Klebsiella aerogenes): 13 µg/mL |
